One assay addresses T1, recombinant GTase A407 (Arabidopsis thaliana, UniProt O81498).
T1 construct: made in house; host or cells: E. coli
T1 sequence (O81498 1-481): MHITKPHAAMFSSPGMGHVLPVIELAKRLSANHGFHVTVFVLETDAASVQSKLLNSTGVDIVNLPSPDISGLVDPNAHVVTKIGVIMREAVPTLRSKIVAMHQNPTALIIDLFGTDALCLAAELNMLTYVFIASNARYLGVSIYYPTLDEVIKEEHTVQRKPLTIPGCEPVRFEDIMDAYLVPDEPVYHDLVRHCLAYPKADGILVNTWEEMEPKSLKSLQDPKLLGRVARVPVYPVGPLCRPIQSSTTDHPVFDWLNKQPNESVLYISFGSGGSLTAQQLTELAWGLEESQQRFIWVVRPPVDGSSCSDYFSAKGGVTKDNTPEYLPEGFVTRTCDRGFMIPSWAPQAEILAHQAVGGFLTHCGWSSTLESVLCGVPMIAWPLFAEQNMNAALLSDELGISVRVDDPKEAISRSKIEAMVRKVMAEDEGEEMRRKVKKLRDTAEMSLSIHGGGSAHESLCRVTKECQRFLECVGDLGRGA
The assay is described as follows: Specific activity of recombinant GTase producing O-glucosides against lignin precursors (HPLC). It counts as biochemical. Particulars: 30° C.; ND = not detected.

For assay [1], the target named is T2, recombinant GTase A119 (Arabidopsis thaliana, UniProt Q9LVR1).
T2 construct: made in house; host or cells: E. coli
T2 sequence (Q9LVR1 1-481): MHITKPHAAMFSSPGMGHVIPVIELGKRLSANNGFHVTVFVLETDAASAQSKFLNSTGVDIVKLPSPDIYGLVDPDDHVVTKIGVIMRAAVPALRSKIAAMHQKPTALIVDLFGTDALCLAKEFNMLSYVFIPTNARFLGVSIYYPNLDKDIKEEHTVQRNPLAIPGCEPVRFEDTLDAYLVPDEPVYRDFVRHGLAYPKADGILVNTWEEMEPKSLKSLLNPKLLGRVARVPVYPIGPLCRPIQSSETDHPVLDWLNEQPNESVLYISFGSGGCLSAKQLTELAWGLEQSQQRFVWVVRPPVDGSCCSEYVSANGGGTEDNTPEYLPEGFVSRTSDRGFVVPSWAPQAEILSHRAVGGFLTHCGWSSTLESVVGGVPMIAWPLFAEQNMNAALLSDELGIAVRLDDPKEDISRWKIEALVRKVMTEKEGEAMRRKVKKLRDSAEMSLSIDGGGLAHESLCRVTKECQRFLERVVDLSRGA
Described as above. The format is biochemical. Particulars: 30° C.; ND = not detected.

The target in another assay is T3, recombinant GTase A43 (Arabidopsis thaliana, UniProt O23402).
T3 construct: made in house; host or cells: E. coli
The experiment in a line: Specific activity of recombinant GTase producing glucose ester against lignin precursors (HPLC). The format is biochemical. The settings on record: 0.5 ml of potential substrates, 5 mM UDPG, 0.2 μg GTase, 200 μl, 20° C., 30 min.

For another assay, the target named is T4, UGT71C1 (Arabidopsis thaliana, UniProt O82381).
T4 construct: GST (N); made in house; host or cells: E. coli
T4 sequence (O82381 1-481): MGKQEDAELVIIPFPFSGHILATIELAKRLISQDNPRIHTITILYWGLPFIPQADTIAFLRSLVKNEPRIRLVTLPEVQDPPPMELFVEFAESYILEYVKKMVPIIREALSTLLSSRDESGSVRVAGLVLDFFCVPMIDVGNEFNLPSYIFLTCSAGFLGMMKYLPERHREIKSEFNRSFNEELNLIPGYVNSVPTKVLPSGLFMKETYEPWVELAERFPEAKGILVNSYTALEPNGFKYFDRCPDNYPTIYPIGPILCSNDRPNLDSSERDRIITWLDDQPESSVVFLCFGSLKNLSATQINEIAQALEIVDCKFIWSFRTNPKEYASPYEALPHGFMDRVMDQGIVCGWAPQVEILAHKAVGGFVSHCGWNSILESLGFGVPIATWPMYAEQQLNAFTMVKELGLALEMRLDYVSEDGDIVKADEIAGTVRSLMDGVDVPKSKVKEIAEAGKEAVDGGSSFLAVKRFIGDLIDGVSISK
The experiment in a line: UGT71C1 glucosyltransferase specific activity towards phenolic compounds (reverse-phase HPLC). The settings on record: 1 mM phenolic compound, 5 mM UDP-glucose, 50 mM TRIS-HCl pH 7.0, 30° C., 30 min; mean of three replicates ± standard deviation. It counts as biochemical.

Another assay addresses T5, recombinant GTase A911 (Arabidopsis thaliana, UniProt O22182).
T5 sequence (O22182 1-456): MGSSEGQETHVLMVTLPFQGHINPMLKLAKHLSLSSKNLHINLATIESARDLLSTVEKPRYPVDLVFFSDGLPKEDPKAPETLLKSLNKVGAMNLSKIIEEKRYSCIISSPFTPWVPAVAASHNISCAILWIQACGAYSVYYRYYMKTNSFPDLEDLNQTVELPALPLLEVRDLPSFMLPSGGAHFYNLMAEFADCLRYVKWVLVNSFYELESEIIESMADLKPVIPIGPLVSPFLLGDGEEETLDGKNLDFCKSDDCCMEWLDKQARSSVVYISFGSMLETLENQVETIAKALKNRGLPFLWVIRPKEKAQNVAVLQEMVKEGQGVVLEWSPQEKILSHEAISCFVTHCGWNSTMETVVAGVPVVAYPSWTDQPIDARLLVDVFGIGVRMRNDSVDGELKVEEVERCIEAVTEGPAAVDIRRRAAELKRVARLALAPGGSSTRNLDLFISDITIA
The experiment in a line: Kinetic studies (Michaelis-Menten) on recombinant GTase producing glucose esters. Particulars: glucose ester formation.

Another assay addresses T6, recombinant GTase A41 (Arabidopsis thaliana, UniProt Q5XF20).
T6 construct: made in house; host or cells: E. coli
T6 sequence (Q5XF20 7-490): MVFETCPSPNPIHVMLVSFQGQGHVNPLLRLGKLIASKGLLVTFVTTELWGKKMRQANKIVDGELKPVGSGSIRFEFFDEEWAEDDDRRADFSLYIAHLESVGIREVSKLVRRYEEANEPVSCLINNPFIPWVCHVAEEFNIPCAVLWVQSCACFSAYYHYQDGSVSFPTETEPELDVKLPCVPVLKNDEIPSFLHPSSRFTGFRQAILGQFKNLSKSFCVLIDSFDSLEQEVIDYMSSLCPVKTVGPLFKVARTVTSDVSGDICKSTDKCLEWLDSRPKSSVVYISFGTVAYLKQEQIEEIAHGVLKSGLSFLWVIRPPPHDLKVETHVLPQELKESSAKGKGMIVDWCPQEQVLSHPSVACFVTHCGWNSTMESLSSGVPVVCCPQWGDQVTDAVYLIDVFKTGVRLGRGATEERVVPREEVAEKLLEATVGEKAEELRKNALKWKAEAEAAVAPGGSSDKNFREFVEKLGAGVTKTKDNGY
The assay is described as above. The format is biochemical. Particulars: glucose ester formation.

The target of assay [2] is T2, recombinant GTase A119. The assay is described as follows: Kinetic studies (Michaelis-Menten) on recombinant GTase producing O-glucosides. Particulars: O-glucoside formation. It counts as biochemical.

The values below come from patent publication US7335814B2, “Transgenic cells expressing glucosyltransferase nucleic acids” (The University of York, priority 2000, dated 2008).

Turning to `O=C(O)/C=C/c1ccc(O)cc1` [p-coumaric acid], the “Specific activity of A407 (substrate converted to 4-O-glucoside)” value at recombinant GTase A407 was found to be 0.01 nkat/mg. Also, the “Specific activity of A119 (substrate converted to 4-O-glucoside)” value at recombinant GTase A119 [1] was determined as 0.02 nkat/mg. Besides, on recombinant GTase A43, the “Specific activity of A43 (substrate converted to glucose ester)” value was 0.03 nkat/mg. Besides, the “Specific activity (UGT71C1)” value at UGT71C1 was 0 nkat/mg.

In the case of `COc1cc(/C=C/C(=O)O)ccc1O` [Ferulic acid, ferulic acid], the “Vmax (A911)” value at recombinant GTase A911 amounted to 6.91 nkat/mg. For the same compound, on recombinant GTase A41, the “Vmax (A41)” value is on record as 11.35 nkat/mg. The “Specific activity of A407 (substrate converted to 4-O-glucoside)” value on recombinant GTase A407 amounted to 0.25 nkat/mg. Also, the “Vmax (A119)” value on recombinant GTase A119 [2] is 18.87 nkat/mg. Also, at recombinant GTase A119 [1], the “Specific activity of A119 (substrate converted to 4-O-glucoside)” value worked out at 14.48 nkat/mg. Also, the “Specific activity of A43 (substrate converted to glucose ester)” value on recombinant GTase A43 is listed as 0.04 nkat/mg. Moreover, the “Specific activity (UGT71C1)” value on UGT71C1 is on record as 0 nkat/mg.
